The values below come from patent US20240101576A1, “HETEROCYCLIC INHIBITORS OF EGFR AND/OR HER2, FOR USE IN THE TREATMENT OF CANCER” (Scorpion Therapeutics, Inc., priority 2020, published 2024).

Common to all, as to type: cell-based
One assay deals with T1, EGFR WT (Ba/F3 cells) (Homo sapiens, UniProt P00533).
T1 construct: expressed in transfected cells; host or cells: Ba/F3 (murine pro-B cells), retroviral transduction, puromycin selection, maintained with EGF
As to the kind of experiment: Inhibitor activity on EGFR-dependent cell growth (CellTiter-Glo, 72 h), Ba/F3 EGFR WT. The note with it: read-out: BaF3 WT IC50. The gist of the method: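 This growth assay used Ba/F3 cells that depend on wild-type EGFR and are kept in EGF without IL3. Compounds were made up as 10 mM DMSO stocks and diluted 3-fold over 10 points. 120 nL went onto 600 cells/well. After 72 hours, 40 μL CellTiter-Glo was added and luminescence read on EnVision after 30 min.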

In assay [1] the target is T2, EGFR exon 20 NPG Ins D770_N771 (Ba/F3 cells) (Homo sapiens, UniProt P00533, INS770NPG).
T2 construct: expressed in transfected cells; host or cells: Ba/F3 (murine pro-B cells), retroviral transduction, puromycin selection, IL3-independent pool
As to the kind of experiment: Inhibitor activity on EGFR-dependent cell growth (CellTiter-Glo, 72 h), Ba/F3 EGFR exon 20 NPG Ins. Particulars: read-out: BaF3 NPG IC50. The method, boiled down: (§1)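 IC50s derive from a sigmoidal dose–response fit of CellTiter-Glo signal. The signal was normalised between […]-treated cells and cell-free medium. Ba/F3 mutant-EGFR cells, seeded at 400–800/well depending on the line, had 72 h of exposure to a 10-point, 3-fold compound series.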

The target in assay [2] is T3, EGFR exon 20 ASV Ins V769_D770 (Ba/F3 cells) (Homo sapiens, UniProt P00533, INS769ASV).
T3 construct: expressed in transfected cells; host or cells: Ba/F3 (murine pro-B cells), retroviral transduction, puromycin selection, IL3-independent pool
As to the kind of experiment: Inhibitor activity on EGFR-dependent cell growth (CellTiter-Glo, 72 h), Ba/F3 EGFR exon 20 ASV Ins. The note with it: read-out: BaF3 ASV IC50. The method, boiled down:
as §1

Assay [3] addresses T4, EGFR exon 20 SVD Ins D770_N771 (Ba/F3 cells) (Homo sapiens, UniProt P00533, INS770SVD).
T4 construct: expressed in transfected cells; host or cells: Ba/F3 (murine pro-B cells), retroviral transduction, puromycin selection, IL3-independent pool
The assay can be described thus: Inhibitor activity on EGFR-dependent cell growth (CellTiter-Glo, 72 h), Ba/F3 EGFR exon 20 SVD Ins. The note with it: read-out: BaF3 SVD IC50. The gist of the method:
as §1

In assay [4] the target is T5, EGFR exon 20 FQEA Ins A763_V764 (Ba/F3 cells) (Homo sapiens, UniProt P00533, INS763FQEA).
T5 construct: expressed in transfected cells; host or cells: Ba/F3 (murine pro-B cells), retroviral transduction, puromycin selection, IL3-independent pool
As to the kind of experiment: Inhibitor activity on EGFR-dependent cell growth (CellTiter-Glo, 72 h), Ba/F3 EGFR exon 20 FQEA Ins. The note with it: read-out: BaF3 FQEA IC50. The gist of the method:
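Compounds, serially diluted 3-fold over 10 points in DMSO and added at 120 nL per well, act on Ba/F3 EGFR-mutant cells for 72 h. Seeding is 800 (exon 19del, FQEA), 600 (L858R/C797S) or 400 (L858R) cells/well. CTG luminescence is fitted with a four-parameter logistic curve to give IC50.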

In assay [5] the target is T3, EGFR exon 20 ASV Ins V769_D770 (Ba/F3 cells). The assay can be described thus: Inhibitor activity on EGFR phosphorylation (pEGFR AlphaLISA, 2 h), Ba/F3 EGFR exon 20 ASV Ins. An excerpt:
Example B. Inhibitor Activity on EGFR phosphorylation (pEGFR)
EGFR mutant Ba/F3 cells were generated by transduction with retrovirus containing vectors expressing EGFR L858R, EGFR exon 19del, EGFR L858R/C797S, EGFR exon 20 NPG Ins D770_N771, EGFR exon 20 ASV Ins V769_D770, or EGFR exon 20 SVD Ins D770_N771 genes along with a puromycin selection marker. Transduced cells are selected with puromycin for 7 days and are then be transferred into culture media without Interleukin 3 (IL3). Surviving cells are confirmed to express EGFR by Western blot and maintained as a pool. CUTO14 cells were obtained from Dr. Robert C. Doebele at the University of Colorado. The IC50 date are included in Table 6 and Table 7.
1.1 Cells are harvested from flask into cell culture medium and the cell number counted.
1.2 Cells are diluted with culture medium to the desired density and 40 μL of cell suspension is added into each well of 384-well cell culture plate and the seeding density is 50K cells/well (Ba/F3) or 12.5K cells/well (CUTO14).
2 Compound Preparation and Treatment
2.1 Test compounds are dissolved to 10 mM in a DMSO stock solution. 45 μL of stock solution is transferred to a 384 polypropylene plate (pp-plate). Perform 3-fold, 10-point dilution via transferring 15 μL compound into 30 μL DMSO using a TECAN (EVO200) liquid handler.
2.2 Spin plates at room temperature at 1,000 RPM for 1 minute.
2.3 Transfer 5 nL of diluted compound from compound source plate into the cell plate.
2.4 After compound treatment for 2 hours, perform pEGFR detection by AlphaLISA for compound treatment plates as described in “Detection” section.
3 Detection by pEGFR AlphaLISA (Perkin-Elmer)
3.1 Plates are removed from incubators and equilibrated at room temperature for 10 minutes, and media was removed
3.2 10 μL of lysis buffer is added and plates shaken at 600 rpm for 1 hr.
3.3 Prepare acceptor mix just before use and dispense 5 μL of acceptor mix to all the wells. Shake 350 rpm for Ihr in the dark
3.4 Prepare donor mix under low light conditions prior to use. Dispense 5 μL of donor mix to all the wells. Mix well on the shaker, seal and wrap in aluminum foil and incubate 1.5 hrs at room temperature in the dark
3.5 Transfer 18.5 μL mixture to OptiPlate 384, and read using an Envision. The IC50 date were included in Table 6 and Table 7.

Setting [6] is: EGFR phosphorylation, AlphaLISA, 2 hours, read-out: ASV IC50 (pEGFR).

T4 sequence (P00533 with tags, fused parts or gaps INS770SVD): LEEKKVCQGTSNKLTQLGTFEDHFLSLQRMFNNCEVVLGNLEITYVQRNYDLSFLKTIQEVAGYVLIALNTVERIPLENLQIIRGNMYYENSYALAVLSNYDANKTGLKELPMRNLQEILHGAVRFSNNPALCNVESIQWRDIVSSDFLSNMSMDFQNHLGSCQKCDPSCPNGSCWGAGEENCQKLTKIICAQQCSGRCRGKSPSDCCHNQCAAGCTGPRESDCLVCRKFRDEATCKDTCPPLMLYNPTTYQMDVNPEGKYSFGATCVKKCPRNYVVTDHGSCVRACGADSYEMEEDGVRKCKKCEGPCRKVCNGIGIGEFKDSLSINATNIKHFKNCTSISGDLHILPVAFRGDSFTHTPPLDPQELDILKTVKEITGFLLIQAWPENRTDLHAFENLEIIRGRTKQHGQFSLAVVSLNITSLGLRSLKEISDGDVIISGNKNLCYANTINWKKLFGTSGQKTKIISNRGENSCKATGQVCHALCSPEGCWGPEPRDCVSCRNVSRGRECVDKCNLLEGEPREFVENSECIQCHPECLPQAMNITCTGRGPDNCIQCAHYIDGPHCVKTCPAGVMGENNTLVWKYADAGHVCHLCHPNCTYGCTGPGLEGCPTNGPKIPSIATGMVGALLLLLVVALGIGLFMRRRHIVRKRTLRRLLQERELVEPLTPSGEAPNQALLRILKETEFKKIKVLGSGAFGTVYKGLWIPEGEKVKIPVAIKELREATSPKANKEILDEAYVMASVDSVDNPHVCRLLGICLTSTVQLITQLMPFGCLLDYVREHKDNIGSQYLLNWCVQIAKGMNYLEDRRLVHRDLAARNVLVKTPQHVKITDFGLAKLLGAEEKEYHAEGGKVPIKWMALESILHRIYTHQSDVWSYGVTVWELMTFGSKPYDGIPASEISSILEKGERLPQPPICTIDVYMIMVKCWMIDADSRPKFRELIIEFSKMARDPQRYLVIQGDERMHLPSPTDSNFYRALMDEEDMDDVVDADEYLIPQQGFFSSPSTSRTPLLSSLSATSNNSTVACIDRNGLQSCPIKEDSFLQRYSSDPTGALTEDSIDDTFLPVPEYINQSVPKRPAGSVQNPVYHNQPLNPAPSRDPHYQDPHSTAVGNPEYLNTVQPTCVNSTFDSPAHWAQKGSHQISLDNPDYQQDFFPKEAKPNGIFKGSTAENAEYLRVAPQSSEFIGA
T1 sequence (P00533 25-1210): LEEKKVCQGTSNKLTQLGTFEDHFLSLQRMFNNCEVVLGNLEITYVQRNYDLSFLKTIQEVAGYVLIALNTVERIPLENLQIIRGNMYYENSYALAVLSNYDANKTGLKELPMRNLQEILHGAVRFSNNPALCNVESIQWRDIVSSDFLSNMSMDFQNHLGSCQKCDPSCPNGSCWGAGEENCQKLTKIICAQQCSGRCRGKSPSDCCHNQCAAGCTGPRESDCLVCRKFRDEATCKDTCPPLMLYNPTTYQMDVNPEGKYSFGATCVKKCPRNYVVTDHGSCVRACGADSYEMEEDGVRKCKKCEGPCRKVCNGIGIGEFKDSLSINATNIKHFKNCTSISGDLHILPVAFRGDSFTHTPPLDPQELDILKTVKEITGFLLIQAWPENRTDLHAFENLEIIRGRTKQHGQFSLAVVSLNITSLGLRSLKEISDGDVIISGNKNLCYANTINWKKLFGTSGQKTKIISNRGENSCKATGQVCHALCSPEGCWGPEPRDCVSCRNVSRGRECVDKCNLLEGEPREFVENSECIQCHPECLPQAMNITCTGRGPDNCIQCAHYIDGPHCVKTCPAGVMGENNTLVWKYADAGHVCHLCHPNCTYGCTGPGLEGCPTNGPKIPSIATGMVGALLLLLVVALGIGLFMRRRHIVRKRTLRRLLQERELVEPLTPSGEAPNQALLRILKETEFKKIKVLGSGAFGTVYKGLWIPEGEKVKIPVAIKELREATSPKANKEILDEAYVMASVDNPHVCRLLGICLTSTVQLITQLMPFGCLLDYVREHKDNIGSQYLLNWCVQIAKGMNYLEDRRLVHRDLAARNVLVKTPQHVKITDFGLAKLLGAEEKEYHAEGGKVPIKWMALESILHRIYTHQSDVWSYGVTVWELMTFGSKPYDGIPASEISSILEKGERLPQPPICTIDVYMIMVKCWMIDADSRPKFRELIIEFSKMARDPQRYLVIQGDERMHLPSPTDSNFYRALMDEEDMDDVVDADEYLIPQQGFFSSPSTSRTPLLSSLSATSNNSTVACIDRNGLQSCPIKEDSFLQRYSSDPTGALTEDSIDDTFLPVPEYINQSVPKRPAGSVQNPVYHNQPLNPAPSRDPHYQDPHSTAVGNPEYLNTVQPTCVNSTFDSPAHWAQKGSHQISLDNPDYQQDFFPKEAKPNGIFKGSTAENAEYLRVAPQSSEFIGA
T2 sequence (P00533 with tags, fused parts or gaps INS770NPG): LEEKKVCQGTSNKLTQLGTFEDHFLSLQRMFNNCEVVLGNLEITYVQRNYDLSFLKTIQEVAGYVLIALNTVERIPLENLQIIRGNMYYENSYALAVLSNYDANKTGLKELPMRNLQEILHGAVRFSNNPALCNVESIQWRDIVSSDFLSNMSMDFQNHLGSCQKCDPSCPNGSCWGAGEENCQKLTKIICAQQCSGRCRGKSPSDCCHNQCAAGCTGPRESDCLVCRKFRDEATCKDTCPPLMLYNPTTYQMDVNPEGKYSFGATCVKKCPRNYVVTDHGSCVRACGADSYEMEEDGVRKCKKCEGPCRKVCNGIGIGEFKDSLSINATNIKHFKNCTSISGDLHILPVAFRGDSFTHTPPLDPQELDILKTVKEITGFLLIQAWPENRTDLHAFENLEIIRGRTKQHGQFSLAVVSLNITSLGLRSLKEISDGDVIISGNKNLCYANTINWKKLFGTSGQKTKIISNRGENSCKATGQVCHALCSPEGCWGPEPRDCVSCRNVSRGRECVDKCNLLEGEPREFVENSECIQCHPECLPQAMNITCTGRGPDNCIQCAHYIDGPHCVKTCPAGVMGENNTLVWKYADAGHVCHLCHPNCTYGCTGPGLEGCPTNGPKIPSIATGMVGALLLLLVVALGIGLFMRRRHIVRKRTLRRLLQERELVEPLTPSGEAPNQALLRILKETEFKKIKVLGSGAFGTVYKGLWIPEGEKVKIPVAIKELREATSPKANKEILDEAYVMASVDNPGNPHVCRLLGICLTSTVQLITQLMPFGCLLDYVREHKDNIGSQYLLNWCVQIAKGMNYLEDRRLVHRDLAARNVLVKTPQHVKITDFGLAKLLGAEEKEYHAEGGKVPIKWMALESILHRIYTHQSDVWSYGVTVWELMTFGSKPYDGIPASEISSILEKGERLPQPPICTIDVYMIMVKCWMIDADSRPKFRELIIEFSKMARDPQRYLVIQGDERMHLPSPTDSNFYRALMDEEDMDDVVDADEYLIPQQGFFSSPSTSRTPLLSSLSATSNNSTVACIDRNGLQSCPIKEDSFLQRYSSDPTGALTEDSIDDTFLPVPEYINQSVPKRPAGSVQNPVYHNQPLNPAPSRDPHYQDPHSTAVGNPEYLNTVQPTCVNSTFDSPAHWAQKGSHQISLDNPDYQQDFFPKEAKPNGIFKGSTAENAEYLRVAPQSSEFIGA
T5 sequence (P00533 with tags, fused parts or gaps INS763FQEA): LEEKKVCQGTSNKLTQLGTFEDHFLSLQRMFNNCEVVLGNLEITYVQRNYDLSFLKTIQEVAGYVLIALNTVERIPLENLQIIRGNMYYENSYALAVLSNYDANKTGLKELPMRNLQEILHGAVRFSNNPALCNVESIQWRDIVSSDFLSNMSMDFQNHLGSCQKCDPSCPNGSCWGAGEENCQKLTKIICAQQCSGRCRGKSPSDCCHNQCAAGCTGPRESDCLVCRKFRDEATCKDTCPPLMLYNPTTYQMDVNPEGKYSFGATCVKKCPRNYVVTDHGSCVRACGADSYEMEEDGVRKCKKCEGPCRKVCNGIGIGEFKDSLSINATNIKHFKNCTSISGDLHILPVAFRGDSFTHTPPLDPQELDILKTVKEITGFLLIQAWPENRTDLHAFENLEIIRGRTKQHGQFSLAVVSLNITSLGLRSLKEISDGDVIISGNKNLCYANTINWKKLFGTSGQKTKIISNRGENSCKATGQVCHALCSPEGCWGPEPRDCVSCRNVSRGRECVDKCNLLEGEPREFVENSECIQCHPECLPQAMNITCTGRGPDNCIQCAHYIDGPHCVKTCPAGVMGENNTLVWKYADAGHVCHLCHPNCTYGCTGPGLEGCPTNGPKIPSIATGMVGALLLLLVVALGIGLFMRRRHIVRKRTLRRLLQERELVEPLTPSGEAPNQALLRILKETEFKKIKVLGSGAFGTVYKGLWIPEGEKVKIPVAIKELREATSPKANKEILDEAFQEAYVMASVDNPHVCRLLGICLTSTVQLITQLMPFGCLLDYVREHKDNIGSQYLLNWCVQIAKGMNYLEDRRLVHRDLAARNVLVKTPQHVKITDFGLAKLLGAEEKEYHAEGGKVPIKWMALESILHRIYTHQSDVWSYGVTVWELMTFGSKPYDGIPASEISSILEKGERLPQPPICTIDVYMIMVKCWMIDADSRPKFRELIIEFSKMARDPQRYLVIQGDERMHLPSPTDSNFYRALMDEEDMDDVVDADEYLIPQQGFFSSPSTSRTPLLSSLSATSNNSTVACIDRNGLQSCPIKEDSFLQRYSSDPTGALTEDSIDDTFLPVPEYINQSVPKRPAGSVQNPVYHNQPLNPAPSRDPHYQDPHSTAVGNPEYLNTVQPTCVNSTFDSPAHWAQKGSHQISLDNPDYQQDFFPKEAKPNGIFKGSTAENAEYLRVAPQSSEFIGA

On to `COc1c(F)cccc1Nc1c(-c2snc3cccnc23)[nH]c2c1C(=O)NCC2` [Compound 156, 3-((3-fluoro-2-methoxyphenyl)amino)-2-(isothiazolo[4,3-b]pyridin-3-yl)-1,5,6,7-tetrahydro-4H-pyrrolo[3,2-c]pyridin-4-one], for which the IC50 (on EGFR WT (Ba/F3 cells); in assay [1]; in assay [2]; in assay [3]; in assay [4]; in assay [5] (setting [6])) was over 1000 nM each time.

As for `COc1c(F)cccc1Nc1c(-c2nc(N)ncc2F)[nH]c2c1C(=O)NCC2` [Compound 688, 2-(2-amino-5-fluoropyrimidin-4-yl)-3-[(3-fluoro-2-methoxyphenyl)amino]-1H,5H,6H,7H-pyrrolo[3,2-c]pyridin-4-one], the IC50 (at EGFR WT (Ba/F3 cells); in assay [1]; in assay [2]; in assay [3]; in assay [4]; in assay [5] (setting [6])) was over 1000 nM each time.

For the molecule `COc1c(Nc2c(-c3ccnc(N)n3)[nH]c3c2C(=O)NCC3)cccc1C(F)(F)F` [Compound 698, 2-(2-aminopyrimidin-4-yl)-3-[[2-methoxy-3-(trifluoromethyl)phenyl]amino]-1H,5H,6H,7H-pyrrolo[3,2-c]pyridin-4-one], the IC50 at EGFR WT (Ba/F3 cells) was over 1000 nM; in assay [1] it was 100 to 1000 nM; in assay [4], 100 to 1000 nM; in assay [5] (setting [6]), 100 to 1000 nM.

With `Nc1nccc(-c2[nH]c3c(c2Nc2cccc(Cl)c2F)C(=O)NCC3)n1` [Compound 706, 2-(2-aminopyrimidin-4-yl)-3-[(3-chloro-2-fluorophenyl)amino]-1H,5H,6H,7H-pyrrolo[3,2-c]pyridin-4-one], the half-inhibitory concentration (IC50) was 100 to 1000 nM on EGFR WT (Ba/F3 cells), under 100 nM in assay [1], 100 to 1000 nM in assay [4] and under 100 nM in assay [5].

`COc1c(F)cccc1Nc1c(-c2ccnc(C)c2)[nH]c2c1C(=O)NCC2` [compound 261]: the IC50 on EGFR WT (Ba/F3 cells) is over 1000 nM; in assay [2], over 1000 nM; in assay [3], over 1000 nM; in assay [4], over 1000 nM; in assay [5] (setting [6]) it was 100 to 1000 nM.

With `CNc1cc(-c2[nH]c3c(c2Nc2cccc(Cl)c2OC)C(=O)NCC3)ncn1` [compound 284], the IC50 (at EGFR WT (Ba/F3 cells); in assay [2]; in assay [3]; in assay [4]; in assay [5] (setting [6])) was over 1000 nM in each case.

As to `COc1c(Cl)cccc1Nc1c(-c2ccnc(NCC(C)(C)O)n2)[nH]c2c1C(=O)NCC2` [compound 288], the IC50 (on EGFR WT (Ba/F3 cells); in assay [2]; in assay [3]; in assay [4]; in assay [5] (setting [6])) was over 1000 nM throughout.

Take `COc1c(Cl)cccc1Nc1c(-c2ccnc3[nH]c(=O)oc23)[nH]c2c1C(=O)NCC2` [compound 293]: the IC50 (on EGFR WT (Ba/F3 cells); in assay [2]; in assay [3]; in assay [4]; in assay [5] (setting [6])) was over 1000 nM in each case.

With `CCc1c(Cl)cccc1Nc1c(-c2ccnc(N)n2)[nH]c2c1C(=O)NCC2` [compound 297], the IC50 is over 1000 nM at EGFR WT (Ba/F3 cells), 100 to 1000 nM in assay [1], 100 to 1000 nM in assay [4] and under 100 nM in assay [5] (setting [6]).

As for `COc1cccc(Nc2c(-c3ccnc(N)n3)[nH]c3c2C(=O)NCC3)c1Cl` [compound 301], the IC50 (at EGFR WT (Ba/F3 cells); in assay [2]; in assay [3]; in assay [4]; in assay [5] (setting [6])) was over 1000 nM in each case.

As for `COc1cc(Cl)cc(Nc2c(-c3ccnc(N)n3)[nH]c3c2C(=O)NCC3)c1` [compound 302], the IC50 (on EGFR WT (Ba/F3 cells); in assay [2]; in assay [3]; in assay [4]; in assay [5] (setting [6])) was over 1000 nM each time.

Turning to `COc1c(Nc2c(-c3ccnc(N)n3)[nH]c3c2C(=O)NCC3)ccc(F)c1F` [compound 303], the IC50 on EGFR WT (Ba/F3 cells) was over 1000 nM; in assay [2], over 1000 nM; in assay [3] it was 100 to 1000 nM; in assay [4], over 1000 nM; in assay [5] (setting [6]), 100 to 1000 nM.

Consider `COc1c(F)cc(F)cc1Nc1c(-c2ccnc(N)n2)[nH]c2c1C(=O)NCC2` [compound 304], for which the IC50 was over 1000 nM on EGFR WT (Ba/F3 cells); 100 to 1000 nM in assay [2]; 100 to 1000 nM in assay [3]; 100 to 1000 nM in assay [4]; under 100 nM in assay [5] (setting [6]).

For `Nc1nccc(-c2[nH]c3c(c2Nc2cccc4c2OCO4)C(=O)NCC3)n1` [compound 306], the IC50 on EGFR WT (Ba/F3 cells) is over 1000 nM; in assay [2], over 1000 nM; in assay [3] it was over 1000 nM; in assay [4], 100 to 1000 nM; in assay [5] (setting [6]), 100 to 1000 nM.

`Nc1nccc(-c2[nH]c3c(c2Nc2cccc4ccoc24)C(=O)NCC3)n1` [compound 307]: the IC50 at EGFR WT (Ba/F3 cells) was over 1000 nM; in assay [2] it was over 1000 nM; in assay [3], over 1000 nM; in assay [4], over 1000 nM; in assay [5] (setting [6]), 100 to 1000 nM.

In the case of `COc1c(Cl)cccc1Nc1c(-c2ccnc(NCC3CC(F)(F)C3)c2)[nH]c2c1C(=O)NCC2` [compound 711], the IC50 at EGFR WT (Ba/F3 cells) is over 1000 nM; in assay [2], over 1000 nM; in assay [3], over 1000 nM; in assay [4], over 1000 nM; in assay [5] (setting [6]), 100 to 1000 nM.

Take `Nc1nccc(-c2[nH]c3c(c2Nc2cccc4scnc24)C(=O)NCC3)n1` [compound 718, 2-(2-aminopyrimidin-4-yl)-3-(1,3-benzothiazol-4-ylamino)-1H,5H,6H,7H-pyrrolo[3,2-c]pyridin-4-one; trifluoroacetic acid]: the IC50 at EGFR WT (Ba/F3 cells) was over 1000 nM; in assay [2] it was over 1000 nM; in assay [3], over 1000 nM; in assay [4], over 1000 nM; in assay [5] (setting [6]) it was 100 to 1000 nM.

For the molecule `Cc1c(Cl)cccc1Nc1c(-c2ccnc(N)n2)[nH]c2c1C(=O)NCC2` [compound 725, 2-(2-aminopyrimidin-4-yl)-3-[(3-chloro-2-methylphenyl)amino]-1H,5H,6H,7H-pyrrolo[3,2-c]pyridin-4-one; trifluoroacetic acid], the IC50 at EGFR WT (Ba/F3 cells) is 100 to 1000 nM; in assay [1], under 100 nM; in assay [4] it was 100 to 1000 nM; in assay [5] (setting [6]), under 100 nM.

Take `COc1c(Nc2c(-c3ccnc(N)n3)[nH]c3c2C(=O)NCC3)cccc1C(C)=O` [compound 728, 3-[(3-acetyl-2-methoxyphenyl)amino]-2-(2-aminopyrimidin-4-yl)-1H,5H,6H,7H-pyrrolo[3,2-c]pyridin-4-one]: the half-maximal inhibitory concentration (IC50) (on EGFR WT (Ba/F3 cells); in assay [2]; in assay [3]; in assay [4]; in assay [5] (setting [6])) was over 1000 nM throughout.
